Earlier results as cited in paper PMC10933920, “Synthesis and Anti-Inflammatory Activity of Ferulic Acid-Sesquiterpene Lactone Hybrids” (Molecules, 2024).

Tested on: primary lung fibroblasts derived from patients with IPF and non-diseased controls
Design: method as in PMID 33730605
Settings: unstimulated fibroblasts, 0–10 µM ACT001; cited from earlier work

CC1=C2CC[C@@](C)(O)[C@@H]2[C@H]2OC(=O)[C@@H](CN(C)C)[C@@H]2CC1 [ACT001]
IL-6 production: inhibited IL-6
